Assay results: PubChem BioAssay (NCI)
Several values for one entry are separate records, joined by “and”; a condition that tells them apart may be missing. Equal entries are not always repeated.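 Where inhibition never reached the appropriate level, the endpoint shown equals the highest concentration tested. Otherwise, values were interpolated linearly from a five-concentration, 48-hour dose response in 96-well plates. GI50: concentration for 50% inhibition of growth. At the TGI there is no net growth.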

What was measured:
Experiment in all cases: NCI-60 cell line screen, 48 h
MOLT-4 leukemia = test system: MOLT-4 leukemia
SF-268 CNS = test system: SF-268 CNS
NCI/ADR-RES ovarian = test system: NCI/ADR-RES ovarian
MDA-MB-435 = test system: MDA-MB-435
SK-OV-3 ovarian = test system: SK-OV-3 ovarian
MCF7 breast = test system: MCF7 breast
NCI-H522 lung = test system: NCI-H522 lung
OVCAR-8 ovarian = test system: OVCAR-8 ovarian
HOP-92 NSCLC = test system: HOP-92 NSCLC
NCI-H23 lung = test system: NCI-H23 lung

SMILES	TGI (MOLT-4 leukemia)	TGI (SF-268 CNS)	TGI (NCI/ADR-RES ovarian)	TGI (MDA-MB-435)	TGI (SK-OV-3 ovarian)	TGI (MCF7 breast)	TGI (NCI-H522 lung)	TGI (OVCAR-8 ovarian)	TGI (HOP-92 NSCLC)	TGI (NCI-H23 lung)	GI50 (MOLT-4 leukemia)	GI50 (SF-268 CNS)	GI50 (NCI/ADR-RES ovarian)	GI50 (MDA-MB-435)	GI50 (SK-OV-3 ovarian)	GI50 (MCF7 breast)	GI50 (NCI-H522 lung)	GI50 (OVCAR-8 ovarian)	GI50 (HOP-92 NSCLC)	GI50 (NCI-H23 lung)
N#Cc1ccc(-c2nc(C#N)c(N)o2)cc1	> 10 µM	> 10 µM	> 10 µM	> 10 µM	> 10 µM	> 10 µM	> 10 µM	> 10 µM	> 10 µM	> 10 µM	–	–	–	–	–	–	–	–	–	–
COc1ccc(Cl)cc1Nc1nc(C(F)(F)F)ccc1C(=O)NN	> 24.3 µM	> 100 µM	> 22.5 µM	> 100 µM	> 68.1 µM	> 100 µM	> 100 µM	> 100 µM	40.1 µM	> 49.5 µM	2.53 µM	1.38 µM	2.3 µM	9.08 µM	3.88 µM	18.7 µM	4.09 µM	3.43 µM	2.56 µM	9.11 µM
N#CC(C#N)SCc1ccccc1	> 100 µM	> 100 µM	> 100 µM	35.7 µM	> 49 µM	> 100 µM	57.7 µM	49.9 µM	> 87.4 µM	89.1 µM	–	–	–	–	–	–	–	–	–	–
Nc1cc(N)c2nc(-c3ccccc3)c(Oc3ccc(F)cc3)nc2c1	> 100 µM	47.6 µM	36.1 µM	32.6 µM	41.4 µM	> 100 µM	> 100 µM	47.4 µM	29.8 µM	40.2 µM	6.58 µM	13.8 µM	18.2 µM	15.8 µM	20.7 µM	20.3 µM	64.7 µM	22.5 µM	12.2 µM	20.7 µM
COc1cc(/C=C2\CN(C)CC3=C2Nc2nc(SC)[nH]c(=O)c2C3c2cc(OC)c(OC)c(OC)c2)cc(OC)c1OC (stereo not given)	88 µM	3.4 µM	> 100 µM	8.46 µM	12.5 µM	18.3 µM	4.69 µM	> 100 µM	10.9 µM	15.8 µM	2.92 µM	1.66 µM	3.6 µM	2.51 µM	3.07 µM	4.98 µM	2.04 µM	2.89 µM	3.4 µM	3.54 µM
COC(=O)c1ccc2c(c1)C(NC(C)=O)CCc1cc(OC)c(OC)c(OC)c1-2 (stereo not given)	51.6 µM	77.9 µM	3.71 µM	< 0.01 µM	13.9 µM	> 100 µM	0.074 µM	9.1 µM	13.1 µM	1.35 µM	–	–	–	–	–	–	–	–	–	–
S=C(N/N=C/c1cc(Cl)cc(Cl)c1)NC12CC3CC(CC(C3)C1)C2	> 100 µM	> 100 µM	> 100 µM	> 100 µM	> 46 µM	> 100 µM	> 100 µM	> 100 µM	12 µM	> 100 µM	> 100 µM	6.18 µM	7.2 µM	> 27.6 µM	5.06 µM	> 82.3 µM	> 63.4 µM	4.87 µM	2.5 µM	10.6 µM
C/C(=N\O)c1ccc(Nc2cc(-n3nnc4ccccc43)nc3ccccc23)cc1	15.4 µM	> 41.9 µM	16.2 µM	> 28.3 µM	> 62.3 µM	14.4 µM	22.8 µM	18.3 µM	46.5 µM	> 29.5 µM	2.85 µM	9.97 µM	5.22 µM	8.86 µM	24.1 µM	5.24 µM	6.39 µM	5.65 µM	14.4 µM	8.98 µM
CS(=O)(=O)c1ccc(Cl)c([N+](=O)[O-])c1	69.5 µM	36.3 µM	46.9 µM	38.4 µM	32.3 µM	33.7 µM	33.5 µM	36.8 µM	35 µM	33.5 µM	28.5 µM	18.5 µM	20.8 µM	18.9 µM	18.4 µM	10.9 µM	16.5 µM	17.7 µM	18.3 µM	16.5 µM
CCOC(=O)c1c(NC(=O)c2ccc(C(C)C)cc2)sc2c(CN(C)C)c(O)ccc12	4.92 µM	4.06 µM	4.52 µM	3.37 µM	9.22 µM	3.77 µM	4.53 µM	16.3 µM	3.1 µM	13.3 µM	2.05 µM	1.98 µM	1.89 µM	1.77 µM	3 µM	1.75 µM	2.01 µM	3.56 µM	1.44 µM	3.22 µM
COc1ccc(C2SC(N)=Nc3c2c(C)nn3C(=O)c2ccc(Cl)cc2)cc1OC (stereo not given)	> 10 µM	> 10 µM	> 10 µM	> 10 µM	> 10 µM	> 10 µM	> 10 µM	> 10 µM	> 10 µM	> 10 µM	–	–	–	–	–	–	–	–	–	–
CN1CCCN(CCNc2nccc(-c3c(-c4cccc(O)c4)nc4sccn34)n2)S1(=O)=O	52.1 µM and 41.2 µM	> 100 µM	75 µM and > 100 µM	20.6 µM and > 71.8 µM	21.3 µM and 17 µM	75 µM and > 100 µM	27.2 µM and 42.1 µM	–	51.6 µM and 77.5 µM	37.8 µM and 72.9 µM	14.5 µM and 10.2 µM	17.7 µM	22.5 µM and 31.1 µM	0.285 µM and 0.438 µM	3.44 µM and 3.21 µM	22.1 µM and 18.8 µM	5.54 µM and 9.27 µM	–	12.1 µM and 16 µM	11.1 µM and 14.4 µM
CCN(CC)c1ccc(NC(=S)NN(C)C)cc1	> 10 µM	> 10 µM	> 10 µM	> 10 µM	> 10 µM	> 10 µM	> 10 µM	> 10 µM	> 10 µM	> 10 µM	–	–	–	–	–	–	–	–	–	–
CC(=O)c1cccc(N(/C=C/C(=O)C(F)(F)F)CC(=O)c2ccc(Cl)cc2)c1	> 100 µM	> 100 µM	> 100 µM	> 100 µM	> 100 µM	> 100 µM	> 100 µM	> 100 µM	> 100 µM	> 100 µM	> 100 µM	> 100 µM	> 100 µM	> 100 µM	> 100 µM	> 100 µM	> 100 µM	> 100 µM	> 100 µM	> 100 µM
Fc1cccc(COc2ccc(Nc3ncnc4sc(-c5ccco5)cc34)cc2Cl)c1	> 25 µM	> 25 µM	> 25 µM	> 25 µM	> 25 µM	> 25 µM	> 25 µM	> 25 µM	> 25 µM	> 25 µM	> 25 µM	> 25 µM	> 25 µM	> 25 µM	> 25 µM	> 25 µM	> 25 µM	> 25 µM	> 25 µM	> 25 µM
CC(C)n1c(/C=C/[C@@H](O)C[C@@H](O)CC(=O)O)c(-c2ccc(F)cc2)c2ccccc21	67.5 µM and > 100 µM	> 100 µM	> 100 µM	> 100 µM	> 100 µM	> 100 µM	> 100 µM	> 100 µM	0.282 µM and 0.183 µM	> 100 µM	16.4 µM and 21.9 µM	0.666 µM and 0.818 µM	0.554 µM and 0.845 µM	10.5 µM and 14.4 µM	19.8 µM and > 51.3 µM	20.7 µM and 16.6 µM	0.995 µM and 0.999 µM	1.32 µM and 0.842 µM	0.0329 µM and 0.0368 µM	3.29 µM and 3.86 µM
Cc1nc(SCC(N)=O)c2sc(=S)n(-c3ccccc3)c2n1	> 10 µM	> 10 µM	> 10 µM	> 10 µM	> 10 µM	> 10 µM	> 10 µM	> 10 µM	> 10 µM	> 10 µM	–	–	–	–	–	–	–	–	–	–
CCOc1ccc(NCC2CC/C(=C\C=C\c3ccccc3)C2=O)cc1 (stereo not given)	> 42.9 µM	24.2 µM	> 75.3 µM	30.4 µM	> 100 µM	12.3 µM	32.3 µM	42.9 µM	45.5 µM	39.3 µM	–	–	–	–	–	–	–	–	–	–
CC[N+]1(C)CCC(O)(c2ccc(C)cc2)C(C(=O)c2ccc(C)cc2)C1 (stereo not given)	48.1 µM	> 100 µM	> 100 µM	> 100 µM	> 100 µM	36.9 µM	41.7 µM	> 100 µM	46.2 µM	> 100 µM	–	–	–	–	–	–	–	–	–	–
C[C@]12CC[C@@H]3c4ccc(O)c([N+](=O)[O-])c4CC[C@H]3[C@@H]1CC[C@@H]2NS(=O)(=O)c1ccc(C(F)(F)F)cc1	5.99 µM	7.55 µM	4.7 µM	3.63 µM	7.36 µM	4.23 µM	3.48 µM	8.3 µM	2.62 µM	4.1 µM	2.08 µM	2.28 µM	1.95 µM	1.74 µM	2.65 µM	1.91 µM	1.61 µM	2.46 µM	1.12 µM	1.84 µM
O=C(O)c1cc[c]([Hg][S]c2ncnc3nc[nH]c23)cc1	15.3 µM	19 µM	30.6 µM	16.8 µM	23.2 µM	> 38.9 µM	8.24 µM	25.3 µM	23 µM	34.8 µM	–	5.15 µM	3.75 µM	3.81 µM	10.8 µM	2.6 µM	1.08 µM	4.44 µM	2.21 µM	15.5 µM
Cc1ccc(C(=O)Nc2ccc(CN3CCN(C)CC3)c(C(F)(F)F)c2)cc1C#Cc1cnc(N)c2ccc(F)cc12	0.671 µM	1.88 µM	2.09 µM	0.47 µM	2.88 µM	0.861 µM	0.723 µM	2.37 µM	0.944 µM	2.24 µM	0.0921 µM	0.259 µM	0.436 µM	0.123 µM	0.684 µM	0.441 µM	0.214 µM	0.297 µM	0.18 µM	0.584 µM
COc1ccc(-c2cc(-c3ccc(Cl)cc3)c(C#N)c(=O)n2CCCCC(=O)Nc2ccccc2N)cc1	> 100 µM	> 100 µM	> 100 µM	> 100 µM	54.3 µM	> 100 µM	57.1 µM	> 100 µM	9.99 µM	55.3 µM	4.89 µM	22.1 µM	4.09 µM	5.8 µM	11.3 µM	4.03 µM	7.04 µM	4.7 µM	2.59 µM	12.7 µM
Clc1ccc(COC(Cn2ccnc2)c2ccc(Cl)cc2Cl)cc1 (stereo not given)	5.89 µM and 20.7 µM and 18.1 µM	18.3 µM and 36.1 µM and 36.7 µM	7.56 µM and 23.3 µM and 24.9 µM	11.7 µM and 24.4 µM and 24 µM	14.8 µM and 26.8 µM and 35.2 µM	6.63 µM and 28.7 µM and 24 µM	2.43 µM and 18.5 µM and 22.8 µM	10.1 µM and 28.7 µM and 32.8 µM	3.42 µM and 24.1 µM and 25.2 µM	10.2 µM and 28.7 µM and 29.7 µM	2.03 µM	3.42 µM	0.787 µM	2.91 µM	4.24 µM	2.43 µM	0.282 µM	1.7 µM	0.511 µM	2.08 µM
CCc1nc(N)nc(N)c1-c1ccc([N+](=O)[O-])c(NCc2ccccc2)c1	26.6 µM	40.3 µM	38.2 µM	38.3 µM	> 55.1 µM	40.2 µM	35.6 µM	42.2 µM	25.9 µM	> 60.6 µM	–	–	–	–	–	–	–	–	–	–
O=C(Nc1ccc(OC(F)(F)F)cc1)c1sccc1NCc1ccnc2ccccc12	> 31.6 µM	> 100 µM	> 100 µM	18.7 µM	> 100 µM	36 µM	> 72 µM	> 56.4 µM	19 µM	19.6 µM	3.09 µM	5.26 µM	2.81 µM	2.87 µM	2.42 µM	4.19 µM	3 µM	4.18 µM	2.5 µM	2.18 µM
Clc1ccccc1NN(Cc1ccccn1)c1ccccc1Cl	41.9 µM	52.4 µM	47.7 µM	34.9 µM	94.9 µM	> 100 µM	41.1 µM	39.9 µM	30.5 µM	50.4 µM	–	–	–	–	–	–	–	–	–	–
CC1(C)CCC(C)(C)c2cc(C(=O)Nc3ccc(C(=O)O)cc3)ccc21	> 76.8 µM	> 87.4 µM	47.3 µM	> 74.3 µM	> 61.1 µM	> 100 µM	70.6 µM	> 88.5 µM	> 100 µM	37.8 µM	–	–	–	–	–	–	–	–	–	–
COc1ccc(OC)c(-c2cc(-c3ccccc3)nn2-c2ccc(S(=O)(=O)NC(C)=O)cc2)c1	> 100 µM	32.2 µM	11.5 µM	22.9 µM	–	> 100 µM	34.8 µM	62.1 µM	38.9 µM	21.5 µM	6.57 µM	10.1 µM	3.38 µM	5.77 µM	–	2.38 µM	10.4 µM	5.99 µM	14.4 µM	8.24 µM
